# Test system: 519858-162-T-J1-PDC complex spheroid viability
# Assay: Anticancer human tumor 519858-162-T-J1-PDC patient-derived colon adenocarcinoma cell line growth inhibition [GQUAD]
# Conditions: for IC50: curve of first compound; for viability, T/C: stronger effect = lower value
# Description: DNA G-quadruplex Stabilizer Agents in Combinations in Complex Spheroids
# A high-throughput screen of multi-cell type tumor spheroids was designed to identify active combinations of DNA G-quadruplex stabilizer agents and targeted small molecules. Complex spheroids include a stromal component modeled by human endothelial cells (HUVEC) and fibroblasts modeled by human mesenchymal stem cells (MSCs). The concentration ranges selected for each drug and investigational agent were based upon clinically achievable concentrations if the clinical Cmax of the agent was known.
# Compounds. The drugs and investigational agents: pidnarulex (CX-5461; NSC782164), APTO-253 (NSC789042), BRACO-19 (NSC847499), peposertib (NSC802822), ceralasertib (NSC780249), elimusertib (NSC800525), camonsertib (NSC841442), AZD-1390 (NSC803789), olaparib (NSC753686), talazoparib (NSC767125), ART-558 (NSC835418), sotorasib (NSC818433), MRTX-1133 (NSC836407), SN-38 (NSC673596), topotecan (NSC609699), etoposide (NSC141540), doxorubicin (NSC123127), gemcitabine (NSC613327), 5-fluorouracil (NSC19893), paclitaxel (NSC125973), vemurafenib (NSC761431), panobinostat (NSC761190), R-306465 (JNJ-16241199; NSC773264), adavosertib (NSC754352), TP-3654 (NSC805149), carboplatin (NSC241240), KSQ-4279 (NSC840948), and staurosporine (NSC755774) were obtained from the National Cancer Institute (NCI) Developmental Therapeutics Program Chemical Repository (34). The FDA-approved anticancer drug set is available from the NCI Developmental Therapeutics Program. […] The stock solutions were prepared in dimethyl sulfoxide (DMSO, Sigma-Aldrich, St. Louis, MO, cat. D2650) at 800-fold the tested concentration and stored at -70 degrees C prior to their use. All drugs and investigational agents were tested over a range starting from a high concentration at or near the clinical Cmax and decreasing in half-log increments. If the clinical Cmax for an agent had not been determined, the highest concentration tested was 10 microM.
# 2.3 Cell Culture. All cells were maintained in an incubator at 37 degrees C and 5% CO2 with 95% humidity. The PDC lines were cultured according to standard operating procedures established by the NCI PDMR. All PDCs were thawed and cultured in Matrigel-coated flasks prepared with a working solution of 1X Ham's F-12 nutrient mix, without supplementation (Invitrogen, cat. 11765054), 100 U/mL penicillin-streptomycin (Invitrogen, cat. 15140122), and 2.5% Matrigel (Corning Inc., cat. 354248) for the first three passages. The 857933-349-R-J2-PDC line was cultured in 6C/Colon 1B media, which includes advanced DMEM/F-12 (Thermo Fisher Scientific, cat. 12634028), 10 mM HEPES (Thermo Fisher Scientific, cat. 15630080), 1X GlutaMAX supplement (Thermo Fisher Scientific, cat. 35050061), 0.1 mg/mL primocin (InvivoGen, cat. ant-pm-2), 10% defined fetal bovine serum, heat inactivated (HyClone Laboratories Inc., cat. SH30070.03HI), 50% L-WRN conditioned media (ATCC, cat. CRL-3276), 1.25 mM N-Acetyl-L-cysteine (Sigma-Aldrich, cat. A9165), 10 mM nicotinamide (Sigma-Aldrich, cat. N0636), 1X B-27 supplement (Thermo Fisher Scientific, cat. 17504044), 1X N-2 supplement (Thermo Fisher Scientific, cat. 17502048), 10 microM Y-27632 dihydrochloride (Tocris Bioscience, cat. 1254), and 50 ng/mL human EGF recombinant protein (Thermo Fisher Scientific, cat. PHG0311). The 485176-168-R4-J1-PDC line was cultured in Panc media, which includes all 6C/Colon 1B media components plus 100 ng/mL human FGF-10 (Thermo Fisher Scientific, cat. 100-26), 500 nM SB-431542 (Selleckchem, cat. S1067), and gastrin (Tocris, cat. 3006).
# […]
# [1] = second compound 0.0316 µM, first compound 0.0316 µM
# [2] = second compound 0.0316 µM, first compound 0.316 µM
# [3] = second compound 0.1 µM, first compound 0.0316 µM
# [4] = second compound 0.1 µM, first compound 0.316 µM
# [5] = second compound 0.316 µM, first compound 0.0316 µM
# [6] = second compound 0.316 µM, first compound 0.316 µM
# [7] = second compound 1 µM, first compound 0.0316 µM
# [8] = second compound 1 µM, first compound 0.316 µM
# [9] = second compound 3.16 µM, first compound 0.0316 µM
# [10] = second compound 3.16 µM, first compound 0.316 µM
# [11] = second compound 10 µM, first compound 0.0316 µM
# [12] = second compound 10 µM, first compound 0.316 µM
# 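Further: spheroids exposed to compounds for 7 days.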
# 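Wherever viability, T/C is given: 100% = DMSO vehicle control viability.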
structure (smiles),measurement,setting,value
CCc1c2c(nc3ccc(O)cc13)-c1cc3c(c(=O)n1C2)COC(=O)[C@]3(O)CC + Cc1[nH]c2ccc(F)cc2c1-c1nc2c3cccnc3c3ncccc3c2[nH]1,IC50,second compound 0.0316 µM,> 316 nM
same,IC50,second compound 0.1 µM,> 316 nM
same,IC50,second compound 0.316 µM,> 316 nM
same,IC50,second compound 1 µM,> 316 nM
same,IC50,second compound 3.16 µM,> 316 nM
same,IC50,second compound 10 µM,< 0.999 nM
same,"viability, T/C","second compound 0.0316 µM, first compound 0.000999 µM",124%
same,"viability, T/C","second compound 0.0316 µM, first compound 0.00316 µM",86%
same,"viability, T/C","second compound 0.0316 µM, first compound 0.00999 µM",70.5%
same,"viability, T/C",[1],86.6%
same,"viability, T/C","second compound 0.0316 µM, first compound 0.0999 µM",56.6%
same,"viability, T/C",[2],62.8%
same,"viability, T/C","second compound 0.1 µM, first compound 0.000999 µM",85%
same,"viability, T/C","second compound 0.1 µM, first compound 0.00316 µM",96.9%
same,"viability, T/C","second compound 0.1 µM, first compound 0.00999 µM",63.7%
same,"viability, T/C",[3],63.2%
same,"viability, T/C","second compound 0.1 µM, first compound 0.0999 µM",84.2%
same,"viability, T/C",[4],52.9%
same,"viability, T/C","second compound 0.316 µM, first compound 0.000999 µM",99.9%
same,"viability, T/C","second compound 0.316 µM, first compound 0.00316 µM",105%
same,"viability, T/C","second compound 0.316 µM, first compound 0.00999 µM",60.8%
same,"viability, T/C",[5],53.9%
same,"viability, T/C","second compound 0.316 µM, first compound 0.0999 µM",63.4%
same,"viability, T/C",[6],59.4%
same,"viability, T/C","second compound 1 µM, first compound 0.000999 µM",89.8%
same,"viability, T/C","second compound 1 µM, first compound 0.00316 µM",75.2%
same,"viability, T/C","second compound 1 µM, first compound 0.00999 µM",78.2%
same,"viability, T/C",[7],83.6%
same,"viability, T/C","second compound 1 µM, first compound 0.0999 µM",54.6%
same,"viability, T/C",[8],62.8%
same,"viability, T/C","second compound 3.16 µM, first compound 0.000999 µM",68.5%
same,"viability, T/C","second compound 3.16 µM, first compound 0.00316 µM",53.3%
same,"viability, T/C","second compound 3.16 µM, first compound 0.00999 µM",47.8%
same,"viability, T/C",[9],61.1%
same,"viability, T/C","second compound 3.16 µM, first compound 0.0999 µM",80%
same,"viability, T/C",[10],49.9%
same,"viability, T/C","second compound 10 µM, first compound 0.000999 µM",39.9%
same,"viability, T/C","second compound 10 µM, first compound 0.00316 µM",50.2%
same,"viability, T/C","second compound 10 µM, first compound 0.00999 µM",69.7%
same,"viability, T/C",[11],56.6%
same,"viability, T/C","second compound 10 µM, first compound 0.0999 µM",74.5%
same,"viability, T/C",[12],76.2%
CC(C)n1c(=O)n(C)c2cnc3cc(F)c(-c4ccc(OCCCN5CCCCC5)nc4)cc3c21 + Cc1cnc(CNC(=O)c2c(=O)c3ccc(N4CCCN(C)CC4)nc3n3c2sc2ccccc23)cn1,IC50,second compound 0.0316 µM,> 10000 nM
same,IC50,second compound 0.1 µM,> 10000 nM
same,IC50,second compound 0.316 µM,10000 nM
same,IC50,second compound 1 µM,< 31.6 nM
same,IC50,second compound 3.16 µM,< 31.6 nM
same,IC50,second compound 10 µM,< 31.6 nM
same,"viability, T/C",[1],55.4%
same,"viability, T/C","second compound 0.0316 µM, first compound 0.1 µM",61.4%
same,"viability, T/C",[2],73.1%
same,"viability, T/C","second compound 0.0316 µM, first compound 1 µM",53.7%
same,"viability, T/C","second compound 0.0316 µM, first compound 3.16 µM",70.2%
same,"viability, T/C","second compound 0.0316 µM, first compound 10 µM",66.4%
same,"viability, T/C",[3],66.8%
same,"viability, T/C","second compound 0.1 µM, first compound 0.1 µM",47.8%
same,"viability, T/C",[4],64.3%
same,"viability, T/C","second compound 0.1 µM, first compound 1 µM",60.6%
same,"viability, T/C","second compound 0.1 µM, first compound 3.16 µM",56.3%
same,"viability, T/C","second compound 0.1 µM, first compound 10 µM",54.6%
same,"viability, T/C",[5],66.7%
same,"viability, T/C","second compound 0.316 µM, first compound 0.1 µM",68.9%
same,"viability, T/C",[6],52.3%
same,"viability, T/C","second compound 0.316 µM, first compound 1 µM",48.5%
same,"viability, T/C","second compound 0.316 µM, first compound 3.16 µM",49.8%
same,"viability, T/C","second compound 0.316 µM, first compound 10 µM",61%
same,"viability, T/C",[7],44.2%
same,"viability, T/C","second compound 1 µM, first compound 0.1 µM",45.9%
same,"viability, T/C",[8],44.2%
same,"viability, T/C","second compound 1 µM, first compound 1 µM",46.7%
same,"viability, T/C","second compound 1 µM, first compound 3.16 µM",44.1%
same,"viability, T/C","second compound 1 µM, first compound 10 µM",43%
same,"viability, T/C",[9],35.6%
same,"viability, T/C","second compound 3.16 µM, first compound 0.1 µM",25.4%
same,"viability, T/C",[10],54.8%
same,"viability, T/C","second compound 3.16 µM, first compound 1 µM",44.1%
same,"viability, T/C","second compound 3.16 µM, first compound 3.16 µM",60.2%
same,"viability, T/C","second compound 3.16 µM, first compound 10 µM",51.5%
same,"viability, T/C",[11],37.1%
same,"viability, T/C","second compound 10 µM, first compound 0.1 µM",43.6%
same,"viability, T/C",[12],46.7%
same,"viability, T/C","second compound 10 µM, first compound 1 µM",52.5%
same,"viability, T/C","second compound 10 µM, first compound 3.16 µM",59.7%
same,"viability, T/C","second compound 10 µM, first compound 10 µM",68.8%

# — PubChem BioAssay AID2060507 (Molecular Pharmacology Branch, DTP, NCI, 2025)
